According to US9938269B2, “Inhibitor compounds of phosphodiesterase type 10A” (ABBVIE INC., priority 2011, dated 2018):
Counter-ions that a name gives are not always drawn.

Columns and labels:
PDE10A (human) = target: T1, PDE10A (human) (Homo sapiens, UniProt Q9Y233); test: Measurement of PDE activity (HTRF cAMP kit), human PDE10A; assay type: biochemical; conditions: PDE enzymatic reaction, substrate 20 nM for PDE10, 60 minutes at 29 C
T1 construct: purchased BPS Bioscience
Summary of the method: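 Recombinant human PDE10A (10–250 pM range across PDEs) with 20 nM cAMP substrate in 20 mM Tris-HCl pH 7.5, 10 mM MgCl2, 0.1% BSA, compound pre-mixed with enzyme. Ran 60 min at 29 °C. Remaining cAMP read by HTRF, converted to % of uninhibited activity, and IC50 fitted.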

[1] = Determination of the microsomal half-life, human liver microsomes; conditions: human, liver microsomes, pH 7.4
[2] = Determination of the microsomal half-life, rat liver microsomes; conditions: rat, liver microsomes, pH 7.4

T1 sequence (Q9Y233 whole entry): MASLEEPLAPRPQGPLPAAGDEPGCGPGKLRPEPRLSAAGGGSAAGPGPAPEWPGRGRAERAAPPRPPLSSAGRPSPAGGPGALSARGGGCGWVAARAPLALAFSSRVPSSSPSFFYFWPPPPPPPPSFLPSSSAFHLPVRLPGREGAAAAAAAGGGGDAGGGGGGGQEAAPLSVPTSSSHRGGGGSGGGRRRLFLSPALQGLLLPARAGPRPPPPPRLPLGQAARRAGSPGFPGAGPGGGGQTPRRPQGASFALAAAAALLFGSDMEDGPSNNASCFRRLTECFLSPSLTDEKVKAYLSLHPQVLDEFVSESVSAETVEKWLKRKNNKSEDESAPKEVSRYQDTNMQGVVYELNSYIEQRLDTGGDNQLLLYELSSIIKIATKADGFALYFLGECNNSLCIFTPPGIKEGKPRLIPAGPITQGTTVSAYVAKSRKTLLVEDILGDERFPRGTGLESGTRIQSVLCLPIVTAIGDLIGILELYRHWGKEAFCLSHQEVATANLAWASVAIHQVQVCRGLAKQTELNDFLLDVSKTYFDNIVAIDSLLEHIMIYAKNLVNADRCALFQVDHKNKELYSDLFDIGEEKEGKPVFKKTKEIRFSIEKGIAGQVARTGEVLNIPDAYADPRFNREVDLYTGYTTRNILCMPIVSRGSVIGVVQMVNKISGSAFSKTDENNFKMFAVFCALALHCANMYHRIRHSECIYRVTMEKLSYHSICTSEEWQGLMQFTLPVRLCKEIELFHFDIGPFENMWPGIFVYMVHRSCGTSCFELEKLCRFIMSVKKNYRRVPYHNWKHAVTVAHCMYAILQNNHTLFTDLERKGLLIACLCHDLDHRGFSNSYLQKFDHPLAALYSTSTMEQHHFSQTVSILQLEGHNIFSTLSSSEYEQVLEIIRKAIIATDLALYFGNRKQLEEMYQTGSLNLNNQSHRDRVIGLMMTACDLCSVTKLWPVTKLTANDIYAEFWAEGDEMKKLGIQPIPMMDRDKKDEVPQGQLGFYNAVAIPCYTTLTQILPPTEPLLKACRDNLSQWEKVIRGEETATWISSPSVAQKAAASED

An IC50 (PDE10A (human)) of less than 100 nM, a microsomal CLint at 0.5 μM [1] of less than 100 µL/min/mg and a microsomal CLint at 0.5 μM [2] greater than 220 µL/min/mg were found for `COc1ccc(N2CCN(C)CC2)c2c1CN(CCc1ccc3ccccc3n1)C2=O` [Example 261, 4-Methoxy-7-(4-methyl-piperazin-1-yl)-2-(2-quinolin-2-yl-ethyl)-2,3-dihydro-isoindol-1-one di-trifluoroacetate] in this work.
An IC50 (PDE10A (human)) of less than 100 nM, a microsomal CLint at 0.5 μM [1] of 100 to 220 µL/min/mg and a microsomal CLint at 0.5 μM [2] of less than 100 µL/min/mg were found for `Cn1c(CCN2Cc3cccc(N4CCOCC4)c3C2=O)nc2cc(F)ccc21` [Example 262, 2-[2-(5-Fluoro-1-methyl-1H-benzoimidazol-2-yl)-ethyl]-7-morpholin-4-yl-2,3-dihydro-isoindol-1-one] in this work.
An IC50 (PDE10A (human)) of less than 100 nM, a microsomal CLint at 0.5 μM [1] of 100 to 220 µL/min/mg and a microsomal CLint at 0.5 μM [2] of less than 100 µL/min/mg were found for `O=C1c2c(cccc2N2CCOCC2)CN1CCc1nc2ccccc2s1` [Example 263, 2-(2-Benzothiazol-2-yl-ethyl)-7-morpholin-4-yl-2,3-dihydro-isoindol-1-one trifluoroacetate] in this work.
An IC50 (PDE10A (human)) of less than 100 nM, a microsomal CLint at 0.5 μM [1] of less than 100 µL/min/mg and a microsomal CLint at 0.5 μM [2] of less than 100 µL/min/mg were found for `COc1ccc(N2CCOCC2)c2c1CN(CCc1cn3ccccc3n1)C2=O` [Example 264, 2-(2-Imidazo[1,2-a]pyridin-2-yl-ethyl)-4-methoxy-7-morpholin-4-yl-2,3-dihydro-isoindol-1-one trifluoroacetate] in this work.
An IC50 (PDE10A (human)) of less than 100 nM, a microsomal CLint at 0.5 μM [1] of 100 to 220 µL/min/mg and a microsomal CLint at 0.5 μM [2] of 100 to 220 µL/min/mg were found for `O=C1c2c(C3=CCOCC3)ccnc2CN1CCc1ccc2ccccc2n1` [Example 265, 4-(3,6-Dihydro-2H-pyran-4-yl)-6-(2-quinolin-2-yl-ethyl)-6,7-dihydro-pyrrolo[3,4-b]pyridin-5-one] in this work.
An IC50 (PDE10A (human)) of less than 100 nM, a microsomal CLint at 0.5 μM [1] of less than 100 µL/min/mg and a microsomal CLint at 0.5 μM [2] of less than 100 µL/min/mg were found for `O=C1c2c(N3CCOCC3)ccnc2CN1CCc1cn2ccccc2n1` [Example 270, 6-(2-Imidazo[1,2-a]pyridin-2-yl-ethyl)-4-morpholin-4-yl-6,7-dihydro-pyrrolo[3,4-b]pyridin-5-one di-trifluoroacetate] in this work.
An IC50 (PDE10A (human)) of less than 100 nM, a microsomal CLint at 0.5 μM [1] of 100 to 220 µL/min/mg and a microsomal CLint at 0.5 μM [2] of 100 to 220 µL/min/mg were found for `O=C1c2c(cccc2NC2COC2)CN1CCc1ccc2ccccc2n1` [Example 274, 7-(Oxetan-3-ylamino)-2-(2-quinolin-2-yl-ethyl)-2,3-dihydro-isoindol-1-one] in this work.
An IC50 (PDE10A (human)) of less than 100 nM, a microsomal CLint at 0.5 μM [1] of less than 100 µL/min/mg and a microsomal CLint at 0.5 μM [2] of less than 100 µL/min/mg were found for `O=C1c2c(NC3COC3)ccnc2CN1CCc1ccc2ccccc2n1` [Example 275, 4-(Oxetan-3-ylamino)-6-(2-quinolin-2-yl-ethyl)-6,7-dihydro-pyrrolo[3,4-b]pyridin-5_] in this work.
An IC50 (PDE10A (human)) of less than 100 nM, a microsomal CLint at 0.5 μM [1] of 100 to 220 µL/min/mg and a microsomal CLint at 0.5 μM [2] of 100 to 220 µL/min/mg were found for `CCn1c(CCN2Cc3cccc(N4CCOCC4)c3C2=O)nc2ccccc21` [Example 278, 2-[2-(1-Ethyl-1H-benzoimidazol-2-yl)-ethyl]-7-morpholin-4-yl-2,3-dihydro-isoindol-1-one] in this work.
An IC50 (PDE10A (human)) of less than 100 nM, a microsomal CLint at 0.5 μM [1] of 100 to 220 µL/min/mg and a microsomal CLint at 0.5 μM [2] of 100 to 220 µL/min/mg were found for `O=C1c2c(-c3ccncc3)ccc(F)c2CN1CCc1cn2ccccc2n1` [Example 280, 4-Fluoro-2-(2-imidazo[1,2-a]pyridin-2-yl-ethyl)-7-pyridin-4-yl-2,3-dihydro-isoindol-1-one] in this work.
An IC50 (PDE10A (human)) of 200 to 500 nM, a microsomal CLint at 0.5 μM [1] of 100 to 220 µL/min/mg and a microsomal CLint at 0.5 μM [2] of less than 100 µL/min/mg were found for `CN(C)CCCn1c(CCN2Cc3cccc(-c4ccncc4)c3C2=O)nc2ccccc21` [Example 294, 2-{2-[1-(3-Dimethylamino-propyl)-1H-benzoimidazol-2-yl]-ethyl}-7-pyridin-4-yl-2,3-dihydro-isoindol-1-one trifluoroacetate] in this work.
An IC50 (PDE10A (human)) of less than 100 nM, a microsomal CLint at 0.5 μM [1] of less than 100 µL/min/mg and a microsomal CLint at 0.5 μM [2] of less than 100 µL/min/mg were found for `O=C1c2c(N3CCOCC3)ccc(F)c2CN1CCc1cn2ccccc2n1` [Example 295, 4-Fluoro-2-(2-imidazo[1,2-a]pyridin-2-yl-ethyl)-7-morpholin-4-yl-2,3-dihydro-isoindol-1-one] in this work.
An IC50 (PDE10A (human)) of less than 100 nM, a microsomal CLint at 0.5 μM [1] of less than 100 µL/min/mg and a microsomal CLint at 0.5 μM [2] of less than 100 µL/min/mg were found for `O=C1c2c(-c3cncnc3)cc[n+]([O-])c2CN1CCc1ccc2ccccc2n1` [Example 296, 1-Oxy-4-pyrimidin-5-yl-6-(2-quinolin-2-yl-ethyl)-6,7-dihydro-pyrrolo[3,4-b]pyridin-5-one] in this work.
An IC50 (PDE10A (human)) of less than 100 nM, a microsomal CLint at 0.5 μM [1] of 100 to 220 µL/min/mg and a microsomal CLint at 0.5 μM [2] of 100 to 220 µL/min/mg were found for `O=C1c2c(C3CCOCC3)ccnc2CN1CCc1ccc2ccccc2n1` [Example 297, 6-(2-Quinolin-2-yl-ethyl)-4-(tetrahydro-pyran-4-yl)-6,7-dihydro-pyrrolo[3,4-b]pyridin-5-one] in this work.
An IC50 (PDE10A (human)) of less than 100 nM, a microsomal CLint at 0.5 μM [1] greater than 220 µL/min/mg and a microsomal CLint at 0.5 μM [2] of 100 to 220 µL/min/mg were found for `Cn1c(CCN2Cc3cccc(-c4ccncc4)c3C2=O)nc2c(F)cccc21` [Example 300, 2-[2-(4-Fluoro-1-methyl-1H-benzoimidazol-2-yl)-ethyl]-7-pyridin-4-yl-2,3-dihydro-isoindol-1-one trifluoroacetate] in this work.
An IC50 (PDE10A (human)) of less than 100 nM, a microsomal CLint at 0.5 μM [1] of 100 to 220 µL/min/mg and a microsomal CLint at 0.5 μM [2] of less than 100 µL/min/mg were found for `Cc1ccc2c(c1)nc(CCN1Cc3cccc(N4CCOCC4)c3C1=O)n2C` [Example 306, 2-[2-(1,5-Dimethyl-1H-benzoimidazol-2-yl)-ethyl]-7-morpholin-4-yl-2,3-dihydro-isoindol-1-one trifluoroacetate] in this work.
An IC50 (PDE10A (human)) of 100 to 200 nM, a microsomal CLint at 0.5 μM [1] of less than 100 µL/min/mg and a microsomal CLint at 0.5 μM [2] of less than 100 µL/min/mg were found for `O=C1c2cccc(N3CCOCC3)c2CN1CCc1cn2ccccc2n1` [Example 308, 2-(2-Imidazo[1,2-a]pyridin-2-yl-ethyl)-4-morpholin-4-yl-2,3-dihydro-isoindol-1-one] in this work.
An IC50 (PDE10A (human)) of less than 100 nM, a microsomal CLint at 0.5 μM [1] of less than 100 µL/min/mg and a microsomal CLint at 0.5 μM [2] of less than 100 µL/min/mg were found for `O=C1c2c(cccc2N2CCOCC2)CN1CCc1cn2ccccc2n1` [Example 310, 2-(2-Imidazo[1,2-a]pyridin-2-yl-ethyl)-7-morpholin-4-yl-2,3-dihydro-isoindol-1-one] in this work.
An IC50 (PDE10A (human)) of less than 100 nM, a microsomal CLint at 0.5 μM [1] of less than 100 µL/min/mg and a microsomal CLint at 0.5 μM [2] of less than 100 µL/min/mg were found for `O=C1c2c(cccc2-c2cncnc2)CN1CCc1nc2ccccc2[nH]1` [Example 312, 2-[2-(1H-Benzoimidazol-2-yl)-ethyl]-7-pyrimidin-5-yl-2,3-dihydro-isoindol-1-one trifluoroacetate] in this work.
An IC50 (PDE10A (human)) of 200 to 500 nM, a microsomal CLint at 0.5 μM [1] of less than 100 µL/min/mg and a microsomal CLint at 0.5 μM [2] of less than 100 µL/min/mg were found for `Cn1nccc1-c1cccc2c1C(=O)N(CCc1nc3ccccc3[nH]1)C2` [Example 313, 2-[2-(1H-Benzoimidazol-2-yl)-ethyl]-7-(2-methyl-2H-pyrazol-3-yl)-2,3-dihydro-isoindol-1-one trifluoroacetate] in this work.
An IC50 (PDE10A (human)) of less than 100 nM, a microsomal CLint at 0.5 μM [1] of less than 100 µL/min/mg and a microsomal CLint at 0.5 μM [2] of less than 100 µL/min/mg were found for `O=C1c2cccc(-c3cc[nH]n3)c2CN1CCc1cn2ccccc2n1` [Example 314, 2-(2-Imidazo[1,2-a]pyridin-2-yl-ethyl)-4-(1H-pyrazol-3-yl)-2,3-dihydro-isoindol-1-one trifluoroacetate] in this work.
An IC50 (PDE10A (human)) of less than 100 nM, a microsomal CLint at 0.5 μM [1] of less than 100 µL/min/mg and a microsomal CLint at 0.5 μM [2] of 100 to 220 µL/min/mg were found for `O=C1c2cccc(-c3ccncc3)c2CN1CCc1cn2ccccc2n1` [Example 316, 2-(2-Imidazo[1,2-a]pyridin-2-yl-ethyl)-4-pyridin-4-yl-2,3-dihydro-isoindol-1-one] in this work.
An IC50 (PDE10A (human)) of 200 to 500 nM, a microsomal CLint at 0.5 μM [1] of 100 to 220 µL/min/mg and a microsomal CLint at 0.5 μM [2] of less than 100 µL/min/mg were found for `O=C1c2c(cccc2N2C[C@@H]3CCCNC[C@H]3C2)CN1CCc1ccc2ccccc2n1` [Example 317, 7-(3aS,8aR)-Octahydro-pyrrolo[3,4-c]azepin-2-yl-2-(2-quinolin-2-yl-ethyl)-2,3-dihydro-isoindol-1-one trifluoroacetate] in this work.
An IC50 (PDE10A (human)) of less than 100 nM, a microsomal CLint at 0.5 μM [1] of 100 to 220 µL/min/mg and a microsomal CLint at 0.5 μM [2] of 100 to 220 µL/min/mg were found for `Cc1ncc(-c2ccnc3c2C(=O)N(CCc2ccc4ccccc4n2)C3)s1` [Example 326, 4-(2-Methyl-thiazol-5-yl)-6-(2-quinolin-2-yl-ethyl)-6,7-dihydro-pyrrolo[3,4-b]pyridin-5-one] in this work.
An IC50 (PDE10A (human)) of less than 100 nM, a microsomal CLint at 0.5 μM [1] of 100 to 220 µL/min/mg and a microsomal CLint at 0.5 μM [2] of 100 to 220 µL/min/mg were found for `O=C1c2c(-c3cccnc3)ccnc2CN1CCc1ccc2ccccc2n1` [Example 329, 4-Pyridin-3-yl-6-(2-quinolin-2-yl-ethyl)-6,7-dihydro-pyrrolo[3,4-b]pyridin-5-one] in this work.
An IC50 (PDE10A (human)) of less than 100 nM, a microsomal CLint at 0.5 μM [1] of less than 100 µL/min/mg and a microsomal CLint at 0.5 μM [2] of less than 100 µL/min/mg were found for `Cc1c(-c2ccnc3c2C(=O)N(CCc2ccc4ccccc4n2)C3)cnn1C` [Example 332, 4-(1,5-Dimethyl-1H-pyrazol-4-yl)-6-(2-quinolin-2-yl-ethyl)-6,7-dihydro-pyrrolo[3,4-b]pyridin-5-one] in this work.
An IC50 (PDE10A (human)) of 100 to 200 nM, a microsomal CLint at 0.5 μM [1] of less than 100 µL/min/mg and a microsomal CLint at 0.5 μM [2] of less than 100 µL/min/mg were found for `Cc1cc(-c2ccnc3c2C(=O)N(CCc2ccc4ccccc4n2)C3)n(C)n1` [Example 334, 4-(2,5-Dimethyl-2H-pyrazol-3-yl)-6-(2-quinolin-2-yl-ethyl)-6,7-dihydro-pyrrolo[3,4-b]pyridin-5-one] in this work.
An IC50 (PDE10A (human)) of 200 to 500 nM, a microsomal CLint at 0.5 μM [1] of 100 to 220 µL/min/mg and a microsomal CLint at 0.5 μM [2] greater than 220 µL/min/mg were found for `Cc1noc(C)c1-c1ccnc2c1C(=O)N(CCc1ccc3ccccc3n1)C2` [Example 335, 4-(3,5-Dimethyl-isoxazol-4-yl)-6-(2-quinolin-2-yl-ethyl)-6,7-dihydro-pyrrolo[3,4-b]pyridin-5-one] in this work.
An IC50 (PDE10A (human)) of 100 to 200 nM, a microsomal CLint at 0.5 μM [1] of 100 to 220 µL/min/mg and a microsomal CLint at 0.5 μM [2] greater than 220 µL/min/mg were found for `Cn1ccc(-c2ccnc3c2C(=O)N(CCc2ccc4ccccc4n2)C3)c1` [Example 337, 4-(1-Methyl-1H-pyrrol-3-yl)-6-(2-quinolin-2-yl-ethyl)-6,7-dihydro-pyrrolo[3,4-b]pyridin-5-one] in this work.
